Some results are limits rather than exact numbers.

The experiment deals with Btk (Homo sapiens (Human), UniProt Q06187). In words: Btk in vitro inhibitory activity (one of Method A TR-FRET, Method B mobility shift, Method C radiometric filter binding). Type of experiment: biochemical. The following applies: determined using one of the methods outlined in Example 36a, 36b and 36c. The method, then: Btk kinase activity is determined using a time-resolved fluorescence resonance energy transfer (TR-FRET) methodology. Measurements are performed in a reaction volume of 50 μL using 96-well assay plates. […] The reaction is quenched by the addition of 1.2 equivalents of EDTA (relative to divalent cation) in 25 μL of 1× Lance buffer (Perkin-Elmer). […] The TR-FRET signal is measured on a multimode plate reader with an excitation wavelength (λEx) of 330 nm and detection wavelengths (λEm) of 615 and 665 nm. Activity is determined by the ratio of the fluorescence at 665 nm to that at 615 nm. For each compound, enzyme activity is measured at various concentrations of compound. Negative control reactions are performed in the absence of inhibitor in replicates of six, and two no-enzyme controls are used to determine baseline fluorescence levels Inhibition constants, Ki(app), ware obtained using the program BatchKi (Kuzmic et al. (2000), Anal. Biochem. 286:45-50). IC50s are obtained according to the equation: IC50={Ki(app)/(1+[ATP]/Km^ATP)}+[E]total/2;
Sequence of Btk (Q06187 whole entry): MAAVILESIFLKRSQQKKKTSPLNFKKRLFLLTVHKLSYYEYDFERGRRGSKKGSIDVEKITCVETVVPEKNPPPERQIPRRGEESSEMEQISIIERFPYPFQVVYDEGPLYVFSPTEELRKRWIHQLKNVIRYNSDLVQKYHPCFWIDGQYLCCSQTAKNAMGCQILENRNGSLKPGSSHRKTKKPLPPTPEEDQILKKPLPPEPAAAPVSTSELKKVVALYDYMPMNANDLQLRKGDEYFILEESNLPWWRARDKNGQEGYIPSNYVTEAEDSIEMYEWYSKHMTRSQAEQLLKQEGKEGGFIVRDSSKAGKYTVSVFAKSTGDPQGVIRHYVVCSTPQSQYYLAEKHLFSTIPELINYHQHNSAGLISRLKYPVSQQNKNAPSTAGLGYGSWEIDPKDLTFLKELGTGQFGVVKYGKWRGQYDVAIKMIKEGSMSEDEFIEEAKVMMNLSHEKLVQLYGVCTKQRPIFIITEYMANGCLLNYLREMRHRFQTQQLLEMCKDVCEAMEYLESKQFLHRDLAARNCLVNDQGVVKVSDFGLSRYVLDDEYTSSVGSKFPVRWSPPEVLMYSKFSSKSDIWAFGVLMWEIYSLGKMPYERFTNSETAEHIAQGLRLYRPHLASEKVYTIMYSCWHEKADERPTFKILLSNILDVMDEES
Kinase activity is measured in vitro using electrophoretic mobility shift assay. The kinase reactions are assembled in a total volume of 25 μL in 384 well plates. […] The reaction is incubated for one hour and is quenched by the addition of 45 μL of termination buffer (100 mM HEPES, pH7.5, 0.01% Triton X-100, 30 mM EDTA). The terminated reactions are analyzed using 12 channel LabChip® 3000 microfluidic detection instrument (Caliper Life Sciences). […] Change in the relative fluorescence intensity of the substrate and product peaks is the parameter measured, reflecting enzyme activity. In the presence of an inhibitor, the ratio between product and substrate is altered: the signal of the product decreases, while the signal of the substrate increases.
Activity in each sample is determined as the product to sum ratio (PSR):P/(S+P), where P is the peak height of the product peptide and S is the peak height of the substrate peptide. For each compound, enzyme activity is measured at various concentrations (12 concentrations of compound spaced by 3× dilution intervals). Negative control samples (0%-inhibition in the absence of inhibitor) and positive control samples (100%-inhibition, in the presence of 20 mM EDTA) are assembled in replicates of four and are used to calculate %-inhibition values for each inhibitor at each concentration. Percent inhibition (Pinh) is determined using following equation: Pinh=(PSR0%−PSRinh)/(PSR0%−PSR100%)*100, where PSRinh is the product sum ratio in the presence of inhibitor, PSR0% is the average product sum ration in the absence of inhibitor and PSR100% is the average product sum ratio in 100%-inhibition control samples;
The IC50 values of inhibitors are determined by 4 parameter sigmoidal dose-response model fitting of the inhibition curves (Pinh versus inhibitor concentration) using XLfit 4 software.
IC50 values and curve fits were obtained using Prism (GraphPad Software).
The degree of Btk inhibition was determined using one of the methods outlined in Example 36a, 36b and 36c.
Consider `CN(C)C/C=C/C(=O)N(C)c1cccc(-n2c(=O)n(-c3ccc(C(=O)Nc4cncc(F)c4)cc3)c3c(N)ncnc32)c1` [Compound 15, (E)-4-(6-amino-9-(3-(4-(dimethylamino)-N-methylbut-2-enamido)phenyl)-8-oxo-8,9-dihydro-7H-purin-7-yl)-N-(5-fluoropyridin-3-yl)benzamide], for which the IC50 is 100 to 1000 nM.

In the case of `Cc1cnc(NC(=O)c2ccc(-n3c(=O)n(-c4cccc(N(C)C(=O)/C=C/CN(C)C)c4)c4ncnc(N)c43)cc2)s1` [Compound 19, (E)-4-(6-amino-9-(3-(4-(dimethylamino)-N-methylbut-2-enamido)phenyl)-8-oxo-8,9-dihydro-7H-purin-7-yl)-N-(5-methylthiazol-2-yl)benzamide], the IC50 was less than 100 nM.

For the molecule `Cc1nc(NC(=O)c2ccc(-n3c(=O)n(-c4cccc(N(C)C(=O)/C=C/CN(C)C)c4)c4ncnc(N)c43)cc2)sc1C` [Compound 21, (E)-4-(6-amino-9-(3-(4-(dimethylamino)-N-methylbut-2-enamido)phenyl)-8-oxo-8,9-dihydro-7H-purin-7-yl)-N-(4,5-dimethylthiazol-2-yl)benzamide], the IC50 was less than 100 nM. With `CN(C)C/C=C/C(=O)N(C)c1cccc(-n2c(=O)n(-c3ccc(C(=O)Nc4ncccc4F)cc3)c3c(N)ncnc32)c1` [Compound 13, (E)-4-(6-amino-9-(3-(4-(dimethylamino)-N-methylbut-2-enamido)phenyl)-8-oxo-8,9-dihydro-7H-purin-7-yl)-N-(3-fluoropyridin-2-yl)benzamide] the figure was 100 to 1000 nM; with `CN(C)C/C=C/C(=O)N(C)c1cccc(-n2c(=O)n(-c3ccc(C(=O)Nc4ccc(Cl)cn4)cc3)c3c(N)ncnc32)c1` [Compound 17, (E)-4-(6-amino-9-(3-(4-(dimethylamino)-N-methylbut-2-enamido)phenyl)-8-oxo-8,9-dihydro-7H-purin-7-yl)-N-(5-chloropyridin-2-yl)benzamide], less than 100 nM.

For `CN(C(=O)CC#N)c1cccc(-n2c(=O)n(-c3ccc(Oc4ccccc4)cc3)c3c(N)ncnc32)c1` [Compound 33, N-(3-(6-amino-8-oxo-7-(4-phenoxyphenyl)-7H-purin-9(8H)-yl)phenyl)-2-cyano-N-methylacetamide], the IC50 fell in the range of 100 to 1000 nM. With `CN(C)C/C=C/C(=O)N(C)c1cccc(-n2c(=O)n(-c3ccc(C(=O)Nc4ccc(F)cn4)cc3)c3c(N)ncnc32)c1` [Compound 14, (E)-4-(6-amino-9-(3-(4-(dimethylamino)-N-methylbut-2-enamido)phenyl)-8-oxo-8,9-dihydro-7H-purin-7-yl)-N-(5-fluoropyridin-2-yl)benzamide] the figure was less than 100 nM. For `CN(C)C/C=C/C(=O)N(C)c1cccc(-n2c(=O)n(-c3ccc(C(=O)Nc4nc5c(s4)CCCC5)cc3)c3c(N)ncnc32)c1` [Compound 22, (E)-4-(6-amino-9-(3-(4-(dimethylamino)-N-methylbut-2-enamido)phenyl)-8-oxo-8,9-dihydro-7H-purin-7-yl)-N-(4,5,6,7-tetrahydrobenzo[d]thiazol-2-yl)benzamide], the IC50 was less than 100 nM. Under `CN(C)C/C=C/C(=O)N(C)c1cccc(-n2c(=O)n(-c3ccc(C(=O)Nc4cccc(C(F)(F)F)c4)cc3)c3c(N)ncnc32)c1` [Compound 11, (E)-4-(6-amino-9-(3-(4-(dimethylamino)-N-methylbut-2-enamido)phenyl)-8-oxo-8,9-dihydro-7H-purin-7-yl)-N-(3-(trifluoromethyl)phenyl)benzamide] stands less than 100 nM; under `CN(C(=O)/C=C/CN(C)C1CC1)c1cccc(-n2c(=O)n(-c3ncc(Oc4ccccc4)cn3)c3c(N)ncnc32)c1` [Compound 69, (E)-N-(3-(6-amino-8-oxo-7-(5-phenoxypyrimidin-2-yl)-7H-purin-9(8H)-yl)phenyl)-4-(cyclopropyl(methyl)amino)-N-methylbut-2-enamide], less than 100 nM; under `Cc1ccnc(NC(=O)c2ccc(-n3c(=O)n(-c4cccc(N(C)C(=O)/C=C/CN(C)C)c4)c4ncnc(N)c43)cc2)c1` [Compound 7, (E)-4-(6-amino-9-(3-(4-(dimethylamino)-N-methylbut-2-enamido)phenyl)-8-oxo-8,9-dihydro-7H-purin-7-yl)-N-(4-methylpyridin-2-yl)benzamide], less than 100 nM. With `CN(C(=O)C1(C#N)CC1)c1cccc(-n2c(=O)n(-c3ccc(Oc4ccccc4)cc3)c3c(N)ncnc32)c1` [Compound 34, N-(3-(6-amino-8-oxo-7-(4-phenoxyphenyl)-7H-purin-9(8H)-yl)phenyl)-1-cyano-N-methylcyclopropanecarboxamide], the IC50 fell in the range of 100 to 1000 nM.

Broadly, the IC50 is the midpoint of a concentration-inhibition curve.
